According to patent publication US9695155B2, “Herbicidal substituted pyrimidinyloxy benzene compounds” (E. I. DU PONT DE NEMOURS AND COMPANY, priority 2013, dated 2017):

Legend:
[1] = system: Italian ryegrass; assay: Test D preemergence; format: in vivo, Lolium multiflorum
Source text: (§1) Seeds of plant species selected from bluegrass (annual bluegrass, Poa annua), blackgrass (Alopecurus myosuroides), canarygrass (littleseed canarygrass, Phalaris minor), chickweed (common chickweed, Stellaria media), galium (catchweed bedstraw, Galium aparine), bromegrass, downy (downy bromegrass, Bromus tectorum), field poppy (Papaver rhoeas), field violet (Viola arvensis), green foxtail (Setaria viridis), deadnettle (henbit deadnettle, Lamium amplexicaule), Italian ryegrass (Lolium multiflorum), kochia (Kochia scoparia), lambsquarters (Chenopodium album), oilseed rape (Brassica napus), pigweed (Amaranthus retroflexus), chamomile (scentless chamomile, Matricaria inodora), Russian thistle (Salsola kali), speedwell (bird's-eye speedwell, Veronica persica), spring barley (Hordeum vulgare), spring wheat (Triticum aestivum), wild buckwheat (Polygonum convolvulus), wild mustard (Sinapis arvensis), wild oat (Avena fatua), wild radish (Raphanus raphanistrum), windgrass (Apera spica-venti), winter barley (Hordeum vulgare), and winter wheat (Triticum aestivum) were planted into a silt loam soil and treated preemergence with test chemicals formulated in a non-phytotoxic solvent mixture which included a surfactant.
(§2) At the same time, these species were planted in pots containing Redi-Earth® planting medium (Scotts Company, 14111 Scottslawn Road, Marysville, Ohio 43041) comprising spaghnum peat moss, vermiculite, wetting agent and starter nutrients and treated with postemergence applications of the test chemicals formulated in the same manner. Plants ranged in height from 2 to 18 cm (1- to 4-leaf stage). Treated plants and controls were maintained in a controlled growth environment for 7 to 21 days after which time all species were compared to controls and visually evaluated. Plant response ratings, summarized in Table D, are based on a scale of 0 to 100 where 0 is no effect and 100 is complete control. A dash (-) response means no test result.

[2] = system: chickweed; assay: Test D postemergence; format: in vivo, Stellaria media
Source text: as §1, §2

[3] = system: speedwell; assay: Test D preemergence; format: in vivo, Veronica persica
Source text: as §1, §2

[4] = system: canarygrass; assay: Test D postemergence; format: in vivo, Phalaris minor
Source text: as §1, §2

[5] = system: pigweed; assay: Test D preemergence; format: in vivo, Amaranthus retroflexus
Source text: as §1, §2

[6] = system: blackgrass; assay: Test D preemergence; format: in vivo, Alopecurus myosuroides
Source text: as §1, §2

[7] = system: oilseed rape; assay: Test D preemergence; format: in vivo, Brassica napus
Source text: as §1, §2

[8] = system: wild oat; assay: Test D postemergence; format: in vivo, Avena fatua
Source text: as §1, §2

[9] = system: pigweed; assay: Test D postemergence; format: in vivo, Amaranthus retroflexus
Source text: as §1, §2

[10] = system: blackgrass; assay: Test D postemergence; format: in vivo, Alopecurus myosuroides
Source text: as §1, §2

[11] = system: wild radish; assay: Test D postemergence; format: in vivo, Raphanus raphanistrum
Source text: as §1, §2

[12] = system: lambsquarters; assay: Test D preemergence; format: in vivo, Chenopodium album
Source text: as §1, §2

[13] = 16 g ai/ha, scale 0 (no effect) to 100 (complete control)
[14] = 31 g ai/ha, scale 0 (no effect) to 100 (complete control)
[15] = 31 g ai/ha, scale 0 to 100 (0 no effect, 100 complete control)
[16] = 62 g ai/ha, scale 0 to 100 (0 no effect, 100 complete control)
[17] = 125 g ai/ha, scale 0 to 100 (0 no effect, 100 complete control)
[18] = 250 g ai/ha, scale 0 to 100 (0 no effect, 100 complete control)

Structure (SMILES): Clc1cnc(Oc2ccccc2-n2cc(Cl)cn2)nc1 [Compound 3]
- Plant response rating, Ryegrass, Italian [1, 13]: 0
- Plant response rating, Ryegrass, Italian [1, 14]: 0
- Plant response rating, Ryegrass, Italian ([1]; 62 g ai/ha, scale 0-100): 0
- Plant response rating, Ryegrass, Italian ([1]; 125 g ai/ha, scale 0-100): 0
- Plant response rating, Ryegrass, Italian ([1]; 250 g ai/ha, scale 0-100): 0
- Plant response rating, Chickweed ([2]; 16 g ai/ha, scale 0-100): 40
- Plant response rating, Chickweed [2, 15]: 0
- Plant response rating, Chickweed [2, 16]: 25
- Plant response rating, Chickweed [2, 17]: 30
- Plant response rating, Chickweed [2, 18]: 40
- Plant response rating, Speedwell [3, 13]: 100
- Plant response rating, Speedwell [3, 14]: 100
- Plant response rating, Speedwell ([3]; 62 g ai/ha, scale 0-100): 100
- Plant response rating, Speedwell ([3]; 125 g ai/ha, scale 0-100): 100
- Plant response rating, Speedwell ([3]; 250 g ai/ha, scale 0-100): 100
- Plant response rating, Canarygrass ([4]; 16 g ai/ha, scale 0-100): 30
- Plant response rating, Canarygrass [4, 15]: 0
- Plant response rating, Canarygrass [4, 16]: 0
- Plant response rating, Canarygrass [4, 17]: 0
- Plant response rating, Canarygrass [4, 18]: 10
- Plant response rating, Pigweed [5, 13]: 0
- Plant response rating, Pigweed [5, 14]: 0
- Plant response rating, Pigweed ([5]; 62 g ai/ha, scale 0-100): 40
- Plant response rating, Pigweed ([5]; 125 g ai/ha, scale 0-100): 80
- Plant response rating, Pigweed ([5]; 250 g ai/ha, scale 0-100): 100
- Plant response rating, Blackgrass [6, 13]: 0
- Plant response rating, Blackgrass ([6]; 31 g ai/ha, scale 0-100): 0
- Plant response rating, Blackgrass ([6]; 62 g ai/ha, scale 0-100): 0
- Plant response rating, Blackgrass ([6]; 125 g ai/ha, scale 0-100): 0
- Plant response rating, Blackgrass ([6]; 250 g ai/ha, scale 0-100): 0
- Plant response rating, Oilseed Rape [7, 13]: 10
- Plant response rating, Oilseed Rape ([7]; 31 g ai/ha, scale 0-100): 75
- Plant response rating, Oilseed Rape ([7]; 62 g ai/ha, scale 0-100): 70
- Plant response rating, Oilseed Rape ([7]; 125 g ai/ha, scale 0-100): 100
- Plant response rating, Oilseed Rape ([7]; 250 g ai/ha, scale 0-100): 100
- Plant response rating, Oat, Wild ([8]; 16 g ai/ha, scale 0-100): 70
- Plant response rating, Oat, Wild [8, 15]: 0
- Plant response rating, Oat, Wild [8, 16]: 0
- Plant response rating, Oat, Wild [8, 17]: 0
- Plant response rating, Oat, Wild [8, 18]: 0
- Plant response rating, Pigweed ([9]; 16 g ai/ha, scale 0-100): 70
- Plant response rating, Pigweed [9, 15]: 70
- Plant response rating, Pigweed [9, 16]: 70
- Plant response rating, Pigweed [9, 17]: 70
- Plant response rating, Pigweed [9, 18]: 90
- Plant response rating, Blackgrass ([10]; Postemergence, 62 g ai/ha, scale 0 to 100 (0 no effect, 100 complete control)): 0
- Plant response rating, Blackgrass ([10]; Postemergence, 31 g ai/ha, scale 0 to 100 (0 no effect, 100 complete control)): 0
- Plant response rating, Blackgrass ([10]; Postemergence, 125 g ai/ha, scale 0 to 100 (0 no effect, 100 complete control)): 0
- Plant response rating, Blackgrass ([10]; Postemergence, 250 g ai/ha, scale 0 to 100 (0 no effect, 100 complete control)): 10
- Plant response rating, Blackgrass ([10]; postemergence, 16 g ai/ha, scale 0 to 100, 0 no effect, 100 complete control): 70
- Plant response rating, Radish, Wild ([11]; 16 g ai/ha, scale 0-100): 70
- Plant response rating, Radish, Wild [11, 15]: 30
- Plant response rating, Radish, Wild [11, 16]: 40
- Plant response rating, Radish, Wild [11, 17]: 50
- Plant response rating, Radish, Wild [11, 18]: 75
- Plant response rating, Lambsquarters [12, 13]: 0
- Plant response rating, Lambsquarters ([12]; 31 g ai/ha, scale 0-100): 0
- Plant response rating, Lambsquarters ([12]; 62 g ai/ha, scale 0-100): 0
- Plant response rating, Lambsquarters ([12]; 125 g ai/ha, scale 0-100): 25
- Plant response rating, Lambsquarters ([12]; 250 g ai/ha, scale 0-100): 50
